According to patent publication US7317028B2, “Cell differentiation inducer” (Schering Aktiengesellschaft, priority 1996, dated 2008):

What was measured:
[1] = test system: Murine myeloid leukemia cells WEHI-3; assay: Antitumor test, life prolongation in mice inoculated with WEHI-3 cells (T/C); type: in vivo, Balb/C mouse; conditions: oral once a day Day 1 to 4 and Day 7 to 11, ratio of survival days to control
Excerpt: Murine myeloid leukemia cells WEHI-3 (1 to 3×10^6 cells) were intraperitoneally inoculated to a Balb/C mouse, and administration of a test compound was initiated on the next day. The day was Day 1 and subsequently the drug was orally administered once a day in Day 1 to 4 and in Day 7 to 11. Survival days after inoculation were observed, which were used to calculate the ratio of the survival days for the test coompound group to those for the control group (T/C, %). The ratio was used to evaluate a life prolongation effect.

[2] = test system: A2780 cells; assay: Test for induction of differentiation in A2780 cells (ALP activity, ALPmin); type: cell-based, human; conditions: for minimal effective concentration: Homo sapiens, 72 h, A2780 cells, 3 days incubation, minimum concentration of the drug inducing increase of ALP activity
Outline: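 A2780 cells seeded at 15,000/well, test compound added in serial dilution the next day. ALP reaction stopped with 3N NaOH and absorbance read at 405 nm; ALPmin is the lowest concentration raising ALP activity.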

melting point	SMILES	T/C ([1]; Dose 130 μmol/kg) [%]	minimal effective concentration [2] [µM]	T/C ([1]; Dose 32 μmol/kg) [%]	differentiation-inducing activity [2]
	Nc1ccccc1NC(=O)c1ccc(NC(=O)COCc2cccnc2)cc1 [Example 130, N-(2-aminophenyl)-4-[(pyridin-3-yl)methoxyacetylamino]benzamide]	189	0.03		
154 to 155 °C	Nc1ccccc1NC(=O)c1ccc(CNC(=O)COc2cccnc2)cc1 [Example 46, N-(2-aminophenyl)-4-[N-(pyridin-3-yl)oxyacetylaminomethyl]benzamide]		0.1	141	high
172 to 173 °C	Cc1cccc(C(=O)NCc2ccc(C(=O)Nc3ccccc3N)cc2)n1 [Example 13, N-(2-aminophenyl)-4-[N-(6-methylpicolinoyl)aminomethyl]benzamide]		1		
	Nc1ccccc1NC(=O)c1ccc(CNC(=O)OCc2cccnc2)cc1 [Example 48, N-(2-aminophenyl)-4-[N-(pyridin-3-yl)methoxycarbonylaminomethyl]benzamide]	190	0.1		high
164 to 165 °C	Cc1ccc(COC(=O)NCc2ccc(C(=O)Nc3ccccc3N)cc2)cn1 [Example 57, N-(2-aminophenyl)-4-[N-(6-methylpyridin-3-yl)methoxycarbonylaminomethyl]benzamide]		3		
121 to 124 °C	Nc1ccccc1NC(=O)c1ccc(CNC(=O)OCCCc2cccnc2)cc1 [Example 55, N-(2-aminophenyl)-4-[N-[3-(pyridin-3-yl)propyloxycarbonyl]aminomethyl]benzamide]		1		
216 to 219 °C (dec.)	CN(C)c1ccc(C(=O)NCc2ccc(C(=O)Nc3ccccc3N)cc2)cc1 [Example 8, N-(2-aminophenyl)-4-[N-[4-(N,N-dimethyl)aminobenzoyl]aminomethyl]benzamide]		1		
191 °C (dec.)	Nc1ccccc1NC(=O)c1ccc(CNC(=O)c2cc3ncccc3o2)cc1 [Example 38, N-(2-aminophenyl)-4-[N-(furo[3,2-b]pyridin-2-yl)carbonylaminomethyl]benzamide]		3		
138 °C	Cc1cccc(COC(=O)NCc2ccc(C(=O)Nc3ccccc3N)cc2)n1 [Example 53, N-(2-aminophenyl)-4-[N-(6-methylpyridin-2-yl)methoxycarbonylaminomethyl]benzamide]		3		
183 to 185 °C (dec.)	Nc1ccccc1NC(=O)c1ccc(CNC(=O)c2ccno2)cc1 [Example 25, N-(2-aminophenyl)-4-[N-(isoxazol-5-yl)carbonylaminomethyl]benzamide]		3		
145 to 147 °C (dec.)	Nc1ccccc1NC(=O)c1ccc(CNC(=O)CCC(=O)c2cccnc2)cc1 [Example 31, N-(2-aminophenyl)-4-[N-[4-(pyridin-3-yl)-1,4-dioxobutyl]aminomethyl]benzamide]		10		
178 to 181 °C (dec.)	Cc1cc(C(=O)Nc2ccccc2N)ccc1NC(=O)COCc1cccnc1 [Example 123, N-(2-aminophenyl)-4-[N-(pyridin-3-yl)methoxyacetylamino]-3-methylbenzamide]		3		
193 to 196 °C	CC(Oc1cccnc1)C(=O)Nc1ccc(C(=O)Nc2ccccc2N)cc1 (stereo not shown) [Example 129, N-(2-aminophenyl)-4-[N-[2-(pyridin-3-yl)oxypropionyl]amino]benzamide]		1		
181 to 183 °C	Cl.Nc1ccccc1NC(=O)c1ccc(-n2cc(COCc3ccccc3)oc2=O)cc1 [Example 138, N-(2-aminophenyl)-4-(5-benzyloxymethyl-1,3-oxazolin-2-on-3-yl)benzamide hydrochloride]		1		
182 °C	Nc1ccccc1NC(=O)c1ccc(CNC(=O)OCc2cnccn2)cc1 [Example 77, N-(2-aminophenyl)-4-[N-(pyrazin-2-yl)methoxycarbonylaminomethyl]benzamide]		3		
218 to 220 °C (dec.)	Nc1ccccc1NC(=O)c1ccc(NC(=O)CNC(=O)c2cccnc2)cc1 [Example 127, N-(2-aminophenyl)-4-[N-(N-nicotinoylamino)acetylamino]benzamide]		0.3		
175 to 179 °C	Nc1ccccc1NC(=O)c1ccc(NC(=O)COc2cccnc2)cc1 [Example 120, N-(2-aminophenyl)-4-[N-(pyridin-3-yl)oxyacetylamino]benzamide]		0.3		
212 to 215 °C (dec.)	Nc1ccccc1NC(=O)c1ccc(NC(=O)COc2ccc([N+](=O)[O-])cc2)cc1 [Example 134, N-(2-aminophenyl)-4-[N-(4-nitrophenoxyacetyl)amino]benzamide]		3		
201 to 204 °C (dec.)	Nc1ccccc1NC(=O)c1ccc(CNC(=O)c2ccccc2Cl)cc1 [Example 2, N-(2-aminophenyl)-4-[N-(2-chlorobenzoyl)aminomethyl]benzamide]		3		
175 to 176 °C	COc1ccc(O)c(NC(=O)c2ccc(CNC(=O)OCc3cccnc3)cc2)c1 [Example 85, N-(2-hydroxy-5-methoxyphenyl)-4-[N-(pyridin-3-yl)methoxycarbonylaminomethyl]benzamide]		3		
130 to 135 °C	CN1CCCC(COC(=O)NCc2ccc(C(=O)Nc3ccccc3N)cc2)C1 (stereo not shown) [Example 65, N-(2-aminophenyl)-4-[N-(1-methylpiperidin-3-yl)methoxycarbonylaminomethyl]benzamide]		3		
239 to 241 °C (dec.)	Nc1ccccc1NC(=O)c1ccc(C(=O)NCc2ccccc2)cc1 [Example 132, N-(2-aminophenyl)-4-(N-benzylamino)carbonylbenzamide]		10		
140 °C	CN(C)c1ccc(CC(=O)Nc2ccc(C(=O)Nc3ccccc3N)cc2)cc1 [Example 108, N-(2-aminophenyl)-4-[[4-(N,N-dimethylamino)phenylacetyl]amino]benzamide]		3		
168 to 175 °C	Nc1ccccc1NC(=O)c1ccc(CNC(=O)OCc2cncs2)cc1 [Example 63, N-(2-aminophenyl)-4-[N-(thiazol-5-yl)methoxycarbonylaminomethyl]benzamide]		3		
154 to 156 °C (dec.)	Nc1ccccc1NC(=O)c1ccc(CNC(=S)OCc2cccnc2)cc1 [Example 88, N-(2-aminophenyl)-4-[N-(pyridin-3-yl)methoxythiocarbonylaminomethyl]benzamide]		0.1		
191 to 194 °C (dec.)	Cc1ncccc1C(=O)NCc1ccc(C(=O)Nc2ccccc2N)cc1 [Example 15, N-(2-aminophenyl)-4-[N-(2-methylnicotinoyl)aminomethyl]benzamide]		3		
